Measured values reported in US12109176B1, “Effect of glycerol on biofilm forming bacteria and fungi that changes the microbes sensitivity to pro and anti-biofilm non-toxic, non-bonded plasma amino acids and amino acid derivatives” (priority 2023, dated 2024).
Entries after “also recorded” stand apart in the source; their conditions may differ.

Experiments:
[1] = test system: fungal biofilm (C. albicans); experiment: Fungal biofilm inhibition assay; type: cell-based, Candida albicans
Method: (§1) Two types of biofilm assays were performed: an inhibition assay and a disruption assay. The inhibition assay assesses the compound's ability to prevent biofilm development, while the disruption assay assesses the compound's ability to break up an existing mature biofilm.
(§2) All bacterial biofilm solutions were prepared in Tryptic Soy Broth (TSB), supplemented with 1% glucose (henceforth referred to as TSB-G). All subsequent procedures were performed in a manner that maintained sterility. A solution of each amino acid or an amino acid derivative to be tested was prepared in weight to volume concentrations ranging from 0.1-5.0%. Amino acids and amino acid derivatives were also tested in combinations. Compound solutions were homogenized with gentle agitation in the dark (4° C., 24 hours) before use.
(§3) 32 Amino acids and 2 amino acid derivatives of the amino acid serine that occur freely in human blood were tested. […] 31 of the 32 amino acids that were tested were the L-Isomers. Glycine has no stereoisomers. The 2 amino acid derivatives, ethanolamine and phosphoethanolamine were also tested. All biofilm assays were performed using 384-well non-tissue culture-treated polystyrene plates. The fungal species tested are as follows: Candida albicans, Candida guilliermondii, Candida parapsilosis, Candida glabrata, Candida tropicalis and Candida dubliniensis. The bacterial species tested are as follows: Staphylococci (standard wild type and methicillin-resistant strain USA300), Escherichia coli, Pseudomonas aeruginosa and Staphylococcus epidermidis.
(§4) Fungal strains were streaked on Yeast Peptone Dextrose (YPD) agar plates and incubated at 30° C. for 48 hours. A single colony from each strain to be tested was inoculated into YPD broth and grown for 12 hours at 30° C., shaking at 225 rpm. […] The cells were allowed to adhere to the plate for 90 minutes at 37° C. with shaking (350 rpm). […] The plate was further incubated for 24 hours at 37° C. with shaking (350 rpm). Media was carefully aspirated and the biofilm was measured by optical density at 600 nm. […] The cells were allowed to adhere to the plate for 90 minutes at 37° C. with shaking (350 rpm). […] The plate was further incubated for 24 hours at 37° C. with shaking (350 rpm). […] The plate was further incubated for 24 hours at 37° C. with shaking (350 rpm). Media was carefully aspirated, and the biofilm was measured by optical density at 600 nm.

fungal biofilm = experiment: In vitro testing on fungal biofilm (inhibition and/or disruption); type: cell-based
Method: as §1, §2, §3, §4

[2] = test system: fungal biofilm (C. albicans); experiment: Fungal biofilm disruption assay; type: cell-based, Candida albicans
Method: as §1, §2, §3, §4

[3] = test system: bacterial (S. aureus) biofilm; experiment: Bacterial biofilm disruption assay; type: cell-based, Staphylococcus aureus
Method: as §1, §2, §3
(§5) Bacterial strains were streaked on Blood Agar plates (5% sheep blood in Tryptic Soy Broth) and incubated at 37° C. for 24 hours. A single colony from each strain to be tested was inoculated in a TSB broth and grown for 12 hours, at 37° C. with shaking (225 rpm). For the bacterial biofilm inhibition assays, 1 μL of saturated overnight cell culture was added to either 80 μL of TSB-G, or TSB-G supplemented with the amino acid compound solution to be tested, in a 384-well plate. The cells were allowed to adhere to the plate for 60 minutes at 37° C. without shaking. The media was carefully aspirated and 80 μL of TSB-G, or TSB-G supplemented with the amino acid compound solution was added to the plate. The plate was further incubated for 24 hours at 37° C. without shaking. Media was carefully aspirated and the biofilm was measured by optical density at 600 nm. Eight or twelve replicates were performed for each tested condition and the reported values are normalized to the control (TSB-G media only). For the bacterial biofilm disruption assays, 80 µL of TSB-G was added to the plate, along with 1 μL of overnight cell culture. The cells were allowed to adhere to the plate for 60 minutes at 37° C. with no shaking. The media was carefully aspirated and 80 μL of TSB-G was added to the plate. The plate was further incubated for 24 hours at 37° C. with no shaking. Media was carefully aspirated from the mature biofilm and 80 μL of TSB-G, or TSB-G supplemented with the amino acid to be tested, was gently added to the plate. The plate was further incubated for 24 hours at 37° C. without shaking. Media was aspirated and the biofilm was measured by optical density at 600 nm. Twelve replicates were performed for each tested condition and the reported values are normalized to the control (TSB-G media only).

[4] = test system: bacterial (S. aureus) biofilm and fungal biofilm (C. albicans); experiment: Biofilm inhibition assay, bacterial and fungal taken together; type: cell-based; conditions: symbol marks the assay
Method: as §1, §2, §3, §4
as §5, with “plate.” for “plate. The plate was further incubated for 24 hours at 37° C. without shaking. Media was aspirated and the biofilm was measured by optical density at 600 nm. Twelve replicates were performed for each tested condition and the reported values are normalized to the control (TSB-G media only).”

bacterial biofilm = experiment: In vitro testing on bacterial biofilm (inhibition and/or disruption); type: cell-based
Method: as §1, §2, §3, §5

[5] = test system: bacterial (S. aureus) biofilm; experiment: Bacterial biofilm inhibition assay; type: cell-based, Staphylococcus aureus
Method: as §1, §2, §3, §5

[6] = Table F, in the presence of a sufficient concentration of glycerol
[7] = Table E, in the absence of an infusion of glycerol
[8] = in the presence of a therapeutic concentration of glycerol

Structure (SMILES) | Reduce or Inhibit F Biofilm (squares: Inhibition Biofilm Assay) ([1]; Table D, 0.1 to 5.0%) | Reduce or Inhibit F Biofilm (squares: Inhibition Biofilm Assay) [1, 6] | effect on fungal biofilm (in words) (fungal biofilm; in vitro testing) | Reduce or Inhibit B Biofilm (dots: Disruption Biofilm Assay) ([3]; Table D, 0.1 to 5.0%) | Reduce or Inhibit B Biofilm (dots: Disruption Biofilm Assay) [3, 6] | effect on bacterial biofilm (in words) (bacterial biofilm; in vitro testing) | Promote F Biofilm (dots: Disruption Biofilm Assay) [2, 7] | other results
NCCO [Ethanolamine, ethanolamine] | ▪ (Single square [ie. ▪] signifies little effect on the Inhibition Biofilm Assay (from about 10 to less than 30%)) | ▪ (Single square [ie. ▪] signifies little effect on the Inhibition Biofilm Assay (from about 10 to less than 30%)) | antifungal biofilm effect | – | – | – | – | –
N[C@@H](COP(=O)(O)O)C(=O)O [Phosphoserine, O-phospho-L-serine] | – | – | antifungal biofilm effects | ● (Single dot [ie. ●] signifies little effect on the Disruption Biofilm Assay (from about 10 to less than 30%)) | ● (Single dot [ie. ●] signifies little effect on the Disruption Biofilm Assay (from about 10 to less than 30%)) | antibacterial biofilm effect | – | Reduce or Inhibit F Biofilm (dots: Disruption Biofilm Assay) ([2]; Table D, 0.1 to 5.0%): ● (Single dot [ie. ●] signifies little effect on the Disruption Biofilm Assay (from about 10 to less than 30%)); Reduce or Inhibit F Biofilm (dots: Disruption Biofilm Assay) [2, 6]: ● (Single dot [ie. ●] signifies little effect on the Disruption Biofilm Assay (from about 10 to less than 30%)); Neutral (square: Inhibition Biofilm Assay) ([4]; Table D, Neutral = no effect on the biofilm): ▪ (Single square [ie. ▪] signifies little effect on the Inhibition Biofilm Assay (from about 10 to less than 30%)); Neutral (square: Inhibition Biofilm Assay) [4, 7]: ▪ (Single square [ie. ▪] signifies little effect on the Inhibition Biofilm Assay (from about 10 to less than 30%)); Neutral (square: Inhibition Biofilm Assay) [4, 6]: ▪ (Single square [ie. ▪] signifies little effect on the Inhibition Biofilm Assay (from about 10 to less than 30%))
CC(C)[C@H](N)C(=O)O [Valine, L-valine] | – | – | supported fungal biofilm formation; also recorded: pro-fungal biofilm effect; also recorded: promoted fungal biofilm formation | ● (Single dot [ie. ●] signifies little effect on the Disruption Biofilm Assay (from about 10 to less than 30%)) | ● (Single dot [ie. ●] signifies little effect on the Disruption Biofilm Assay (from about 10 to less than 30%)) | anti-bacterial biofilm effect | ● (Single dot [ie. ●] signifies little effect on the Disruption Biofilm Assay (from about 10 to less than 30%)) | effect on bacterial biofilm (in words) (bacterial biofilm; [8]): anti-bacterial biofilm effect; effect on bacterial biofilm (in words) (bacterial biofilm; in the presence of a therapeutic concentration of glycerol, listed as valine): anti-bacterial biofilm effect became dominant; effect on fungal biofilm (in words) (fungal biofilm; [8]): lost its pro-fungal biofilm effect; effect on fungal biofilm (in words) (fungal biofilm; in vitro testing, listed as valine): supported the formation of biofilm made by biofilm-forming fungi
Cn1cncc1C[C@H](N)C(=O)O [3-Methylhistidine, 3-methyl-L-histidine] | – | – | promoted fungal biofilm formation | ● (Single dot [ie. ●] signifies little effect on the Disruption Biofilm Assay (from about 10 to less than 30%)) | ● (Single dot [ie. ●] signifies little effect on the Disruption Biofilm Assay (from about 10 to less than 30%)) | antibacterial biofilm effect | ● (Single dot [ie. ●] signifies little effect on the Disruption Biofilm Assay (from about 10 to less than 30%)) | Promote F Biofilm (squares: Inhibition Biofilm Assay) ([1]; Table D, 0.1 to 5.0%): ▪ (Single square [ie. ▪] signifies little effect on the Inhibition Biofilm Assay (from about 10 to less than 30%)); Promote F Biofilm (squares: Inhibition Biofilm Assay) [1, 7]: ▪ (Single square [ie. ▪] signifies little effect on the Inhibition Biofilm Assay (from about 10 to less than 30%)); Promote F Biofilm (dots: Disruption Biofilm Assay) ([2]; Table D, 0.1 to 5.0%): ● (Single dot [ie. ●] signifies little effect on the Disruption Biofilm Assay (from about 10 to less than 30%))
O=C(O)[C@@H]1C[C@@H](O)CN1 [Hydroxyproline, Trans-4-hydroxy-L-proline] | ▪ (Single square [ie. ▪] signifies little effect on the Inhibition Biofilm Assay (from about 10 to less than 30%)) | ▪ (Single square [ie. ▪] signifies little effect on the Inhibition Biofilm Assay (from about 10 to less than 30%)) | antifungal biofilm effects | ● (Single dot [ie. ●] signifies little effect on the Disruption Biofilm Assay (from about 10 to less than 30%)) | ● (Single dot [ie. ●] signifies little effect on the Disruption Biofilm Assay (from about 10 to less than 30%)) | antibacterial biofilm effect | – | Reduce or Inhibit B Biofilm (squares: Inhibition Biofilm Assay) ([5]; Table D, 0.1 to 5.0%): ▪ (Single square [ie. ▪] signifies little effect on the Inhibition Biofilm Assay (from about 10 to less than 30%)); Reduce or Inhibit B Biofilm (squares: Inhibition Biofilm Assay) [5, 6]: ▪ (Single square [ie. ▪] signifies little effect on the Inhibition Biofilm Assay (from about 10 to less than 30%))
